Assay results published in US20090088380A1, “GHRH ANALOGS AND THERAPEUTIC USES THEREOF” (priority 2007, published 2009).
Where “and” joins values, the source holds several entries; their conditions need not be identical. Equal entries are not always repeated. Non-standard residues stand in square brackets, D forms with d. Residues, ends and D or L forms follow the SMILES beside them.

Tested on: endogenous GH secretion
Experiment: Phase II CKD: 24-hour GH profile and deconvolution
Format: in vivo, human
Description: Blood samples for assessment of GH secretion had to be taken over 24 hours because the release of endogenous GH was pulsatile and not consistent throughout the day. Much of endogenous GH release is closely coupled to periods of slow-wave sleep, and the bulk of GH secretion usually occurs between midnight and 4 am. […] To document clearly the effect of the GHRH(1-29)NH2 synthetic analog on endogenous GH secretion, the following protocol had been designed: first, baseline endogenous GH secretion was assessed on Day 0 by sampling blood every 20 minutes for 20 hours and every 10 minutes for 4 hours. At the end of this sampling period (in the afternoon of Day 1), the first injection of the GHRH(1-29)NH2 synthetic analog was given. At the end of the 4-week treatment period (Day 28), GH secretion was reassessed by another 24-hour secretion profile. This profile started at 8:30 am with the morning injection of the GHRH(1-29)NH2 synthetic analog. Blood was collected every 10 minutes for the first 4 hours, followed by sampling every 20 minutes for the next 20 hours; this period included the afternoon injection of the GHRH(1-29)NH2 synthetic analog. In this way, it was possible to assess the evolution of both the pituitary's immediate GHRH response and that of time-integrated 24-hour GH secretion over extended treatment.
On Day 0 (baseline) and Day 28, subjects commenced 24-hour sampling at 10 and 20-minute intervals to construct a GH profile. […] The cannula was flushed with heparin-saline solution after each blood withdrawal to prevent clotting. Immediately before each blood collection, the residual heparin-saline volume instilled in the cannula was withdrawn with 0.5 mL blood in a separate syringe. This volume was reinjected after collection of the sample used for GH analysis.
At the baseline visit, blood sampling for the 24-hour GH profile commenced on Day 0 by taking samples at 20-minute intervals for 20 hours. Immediately at the end of this period, on the morning of Day 1, samples were taken at 10-minute intervals for 4 hours. The first dose of investigational product was not given before the end of the 24-hour GH profile period. On Day 28, samples were taken pre-dose, at 10-minute intervals for the first 4 hours (at the same time of day as the 4-hour period on Day 1) and at 20-minute intervals thereafter for a further 20 hours.
Samples were analysed for GH at the Department of Nephrology, Endocrinology and Metabolic Diseases, Silesian University School of Medicine, Katowice, Poland using a commercial kit.

[1] = GH deconvolution, ITT, Baseline
[2] = GH deconvolution, ITT, Day 28, vs placebo

CC[C@H](C)[C@H](NC(=O)[C@H](C)NC(=O)[C@H](CC(=O)O)NC(=O)[C@@H](C)NC(=O)[C@@H](N)Cc1ccc(O)cc1)C(=O)N[C@@H](Cc1ccccc1)C(=O)N[C@H](C(=O)N[C@@H](CC(N)=O)C(=O)N[C@@H](CO)C(=O)N[C@H](Cc1ccc(O)cc1)C(=O)N[C@@H](CCCNC(=N)N)C(=O)N[C@@H](CCCCN)C(=O)N[C@H](C(=O)N[C@@H](CC(C)C)C(=O)N[C@H](C)C(=O)N[C@@H](CCC(N)=O)C(=O)N[C@@H](CC(C)C)C(=O)N[C@@H](CO)C(=O)N[C@@H](C)C(=O)N[C@@H](CCCNC(=N)N)C(=O)N[C@@H](CCCCN)C(=O)N[C@@H](CCCCN)C(=O)N[C@@H](CC(C)C)C(=O)N[C@@H](CCC(N)=O)C(=O)N[C@@H](CC(=O)O)C(=O)N[C@H](C(=O)N[C@@H](CCSC)C(=O)N[C@@H](CO)C(=O)N[C@@H](CCCNC(=N)N)C(N)=O)[C@@H](C)CC)C(C)C)[C@@H](C)O [GHRH analog #5, [D-Ala^2, D-Tyr^10, D-Ala^15, Lys^22] hGHRH(1-29)-NH2] (H-Y[dA]DAIFTNS[dY]RKVL[dA]QLSARKKLQDIMSR-NH2)
1st component half-life: median [1]: 6 min
2nd component half-life: median [1]: 16 min
% pulsatile secretion rate: mean (SD) [1]: 79.02 (9.09) %
Basal secretion rate: median [1]: 27 mU/L/24 h
Inter-pulse regularity: mean (SD) [1]: 2.35 (0.63)
Mass per pulse: mean (SD) [1]: 11.30 (7.02) mU/L
Mean pulse frequency (per 24 h): mean (SD) [1]: 8.09 (2.81) per 24 h
Number of pulses: mean (SD) [1]: 8.8 (3.2)
Pulsatile secretion rate: median [1]: 100 mU/L/24 h
Time from onset to peak of burst: mean (SD) [1]: 32.8 (3.9) min
Total secretion rate: median [1]: 120 mU/L/24 h
1st component half-life: median (GH deconvolution, ITT, Day 28): 2 min
2nd component half-life: comparison vs placebo (GH deconvolution, ITT, Day 28): 4.8
2nd component half-life: median (GH deconvolution, ITT, Day 28): 26 min
% pulsatile secretion rate: comparison vs placebo (GH deconvolution, ITT, Day 28): −0.4
% pulsatile secretion rate: mean (SD) (GH deconvolution, ITT, Day 28): 71.27 (16.24) %
Basal secretion rate: median (GH deconvolution, ITT, Day 28): 98 mU/L/24 h
Inter-pulse regularity: comparison vs placebo (GH deconvolution, ITT, Day 28): −0.0
Inter-pulse regularity: mean (SD) (GH deconvolution, ITT, Day 28): 1.95 (0.30)
Mass per pulse: comparison vs placebo (GH deconvolution, ITT, Day 28): 26.5
Mass per pulse: mean (SD) (GH deconvolution, ITT, Day 28): 43.88 (36.16) mU/L
Mean pulse frequency (per 24 h): mean (SD) (GH deconvolution, ITT, Day 28): 9.07 (3.49) per 24 h
Mean pulse frequency: comparison vs placebo (GH deconvolution, ITT, Day 28): 0.8
Number of pulses: comparison vs placebo (GH deconvolution, ITT, Day 28): 0.3
Number of pulses: mean (SD) (GH deconvolution, ITT, Day 28): 9.7 (3.7)
Pulsatile secretion rate: median (GH deconvolution, ITT, Day 28): 378 mU/L/24 h
Time from onset to peak of burst: comparison vs placebo (GH deconvolution, ITT, Day 28): −4.5
Time from onset to peak of burst: mean (SD) (GH deconvolution, ITT, Day 28): 27.3 (4.7) min
Total secretion rate: median (GH deconvolution, ITT, Day 28): 495 mU/L/24 h
Basal secretion rate: comparison or ratio of means [2]: 2.53
Pulsatile secretion rate: comparison or ratio of means [2]: 2.81
Total secretion rate: comparison or ratio of means [2]: 2.72
GH AUC first 4 hours: increase from baseline to day 28 (ITT): 1137%
GH AUC at 4 h: median (ITT, Baseline): 315 μIU/mL × min
GH AUC at 24 h: median (ITT, Baseline): 3473 μIU/mL × min
GH SD at 4 h: median (ITT, Baseline): 1.0 μIU/mL
GH SD at 24 h: median (ITT, Baseline): 2.9 μIU/mL
GH concentration at 4 h: median (ITT, Baseline): 1.3 μIU/mL
GH concentration at 24 h: median (ITT, Baseline): 2.1 μIU/mL
Mean concentration of GH secreted during the first 4 hours (ITT, Baseline): 1.72 μIU/ml
GH AUC at 4 h: median (ITT, Day 28): 3891 μIU/mL × min
GH AUC at 24 h: difference vs placebo (ITT, Day 28): 11585 μIU/mL × min
GH AUC at 24 h: median (ITT, Day 28): 16753 μIU/mL × min
GH SD at 4 h: median (ITT, Day 28): 11.6 μIU/mL
GH SD at 24 h: median (ITT, Day 28): 13.3 μIU/mL
GH concentration at 4 h: median (ITT, Day 28): 16.2 μIU/mL
GH concentration at 24 h: comparison vs placebo (ITT, Day 28): 9.5
GH concentration at 24 h: median (ITT, Day 28): 12.5 μIU/mL
GH AUC at 4 h: ratio (ITT, Day 28, vs placebo): 9.5 and 9.49
GH SD at 4 h: comparison or ratio of means (ITT, Day 28, vs placebo): 6.97
GH SD at 24 h: comparison or ratio of means (ITT, Day 28, vs placebo): 3.92
GH concentration at 4 h: ratio (ITT, Day 28, vs placebo): 9.50
Mean GH concentration first 4 hours: increase (ITT, baseline to day 28): 1136%
Mean concentration of GH secreted during the first 4 hours (ITT, day 28): 21.26 μIU/ml
Mean amount of GH secreted in 24 hours (AUC) (baseline): 3770.62 μIU/ml×min
Mean basal GH secretion rate (baseline): 26.9 mU/L/24 h
Mean concentration of GH (baseline): 2.49 μIU/ml
Mean 24-hour GH AUC: increase (baseline to day 28): 393%
Mean amount of GH secreted in 24 hours (AUC) (day 28): 18579.9 μIU/ml×min
